Data from patent US11053248B2, “[1,2,4]triazolo[1,5-a]pyrimidine compounds as PDE2 inhibitors” (Janssen Pharmaceutica NV, priority 2016, dated 2021).

Columns and labels:
hPDE3B = assay: In vitro assay PDE3 (SPA, 3H-cAMP); type: biochemical, human
hPDE2A = molecular target: T1, hPDE2A (Homo sapiens, UniProt O00408); assay: In vitro assay PDE2A (SPA, 3H-cGMP); type: biochemical
T1 construct: made in house; host or cells: Sf9 insect cells (baculovirus)
Procedure, shortened: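 Sf9-expressed, Ni-sepharose-purified enzyme in 50 mM Tris pH 7.8, 8.3 mM MgCl2, 1.7 mM EGTA with 10 μM cGMP plus 0.01 μCi 3H-cGMP (final), 1% DMSO. Reaction 45 min at room temperature; SPA bead radioactivity counted as cpm, blanks without enzyme, controls with DMSO instead of compound.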

mossy fiber synapse = assay: Effect on synaptic transmission: weak HFS-induced LTP, hippocampal slices (MEA); type: cell-based, rat
Source text: Effect of Test Compounds on Synaptic Transmission Critical Reagents
Sucrose dissection buffer contained (in mM) sucrose (150), NaCl (40), KCl (4), NaH2PO4.H2O (0.3), MgCl.6H2O (7), NaHCO3 (26), CaCl2.2H2O (0.5), D-glucose (10), equilibrated with 95% O2 and 5% CO2 gas mixture. Artificial cerebrospinal fluid (ACSF) used during equilibration and recording contained (in mM): NaCl (124), KCl (2.7), NaH2PO4.H2O (1.25), MgSO4.7H2O (1.3), NaHCO3 (26), CaCl2.2H2O (2), D-glucose (10), Ascorbic acid (2), equilibrated with 95% O2 and 5% CO2 gas mixture. CNQX and Kynurenic acid were prepared in ACSF at a 50 μM and 1 mM concentration respectively. […] All reagents were from Sigma-Aldrich, unless otherwise indicated. […]
All data were recorded with a MEA set-up commercially available from MultiChannel Systems MCS GmbH (Reutlingen, Germany) composed of a 4-channel stimulus generator and a 60-channels amplifier head-stage connected to a 60-channels A/D card. […]
Extracellular field potential recordings. […] All data were recorded with a MEA set-up commercially available from MultiChannel Systems MCS GmbH (Reutlingen, Germany). Two adjacent electrodes of the chip were selected to stimulate the mossy fibres in the hilar region of the dentate gyrus and the fEPSP was recorded the terminal zone area of the CA3 region of the hippocampus. […]

Solubility (as reported) = type: physicochemical; conditions: in words

T1 sequence (O00408 whole entry): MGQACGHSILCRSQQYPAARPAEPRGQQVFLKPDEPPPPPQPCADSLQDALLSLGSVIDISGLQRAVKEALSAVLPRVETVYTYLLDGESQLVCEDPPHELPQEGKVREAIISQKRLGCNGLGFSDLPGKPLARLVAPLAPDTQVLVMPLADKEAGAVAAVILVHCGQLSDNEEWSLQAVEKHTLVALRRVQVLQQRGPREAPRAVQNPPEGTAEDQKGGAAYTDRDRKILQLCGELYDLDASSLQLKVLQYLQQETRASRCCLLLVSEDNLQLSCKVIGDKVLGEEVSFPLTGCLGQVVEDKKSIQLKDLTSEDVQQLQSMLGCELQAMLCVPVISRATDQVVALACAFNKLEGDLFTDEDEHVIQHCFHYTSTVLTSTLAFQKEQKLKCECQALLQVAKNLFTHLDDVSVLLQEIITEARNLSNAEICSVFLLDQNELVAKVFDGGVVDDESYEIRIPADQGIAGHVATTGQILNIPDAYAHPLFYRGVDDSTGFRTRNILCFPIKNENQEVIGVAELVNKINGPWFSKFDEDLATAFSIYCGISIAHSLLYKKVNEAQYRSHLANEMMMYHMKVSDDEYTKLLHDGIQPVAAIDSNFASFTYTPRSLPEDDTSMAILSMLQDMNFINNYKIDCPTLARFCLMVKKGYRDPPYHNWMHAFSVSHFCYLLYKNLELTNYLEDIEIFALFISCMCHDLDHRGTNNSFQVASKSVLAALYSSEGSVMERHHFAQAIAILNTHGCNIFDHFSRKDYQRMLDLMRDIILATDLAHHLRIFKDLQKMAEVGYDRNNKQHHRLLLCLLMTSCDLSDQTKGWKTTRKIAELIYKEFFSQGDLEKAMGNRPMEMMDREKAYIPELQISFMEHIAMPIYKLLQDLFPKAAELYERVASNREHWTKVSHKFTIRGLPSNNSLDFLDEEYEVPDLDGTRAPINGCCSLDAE

C[C@@H]1CCN(c2nccc3ccc(Br)cc23)C[C@H]1c1cc(C(F)F)nc2ncnn12 [Compound 1]
hPDE3B Emax (hPDE3B): 73 | hPDE3B pIC50 (hPDE3B; 0.4 μM cAMP substrate): 5.25 | IC50 (hPDE2A; 10 μM cGMP substrate, read-out: hPDE2A pIC50 (converted)): 2.24 nM | Emax (hPDE2A; read-out: hPDE2A Emax): 96% | penetration to the tissue (mossy fiber synapse; hippocampal slice, reported, in words): poor | effect on weak HFS-induction of long term potentiation (LTP) (mossy fiber synapse; mossy fiber synapse, hippocampal slices of male Sprague-Dawley rats, FIG. 1): did not facilitate the induction of LTP | solubility (Solubility (as reported)): poor
